Measurements taken from PubChem BioAssay (NCI).
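A five-concentration, 48-hour dose response in 96-well plates underlies each endpoint, interpolated linearly between surrounding concentrations. The concentration for full growth arrest is given as TGI.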

Key:
Test in all cases: NCI tumour cell line growth inhibition, 48 h
SK-MEL-5 melanoma = test system: SK-MEL-5 melanoma
M14 melanoma = test system: M14 melanoma
MALME-3M melanoma = test system: MALME-3M melanoma
OVCAR-3 ovarian = test system: OVCAR-3 ovarian
LOX IMVI melanoma = test system: LOX IMVI melanoma
NCI-H23 lung = test system: NCI-H23 lung
K-562 leukemia = test system: K-562 leukemia
OVCAR-8 ovarian = test system: OVCAR-8 ovarian
SF-295 CNS = test system: SF-295 CNS
HCT-15 colon = test system: HCT-15 colon
COLO 205 colon = test system: COLO 205 colon
MDA-MB-231 breast = test system: MDA-MB-231 breast
SW-620 colon = test system: SW-620 colon
KM12 colon = test system: KM12 colon
A549 NSCLC = test system: A549 NSCLC
PC-3 prostate = test system: PC-3 prostate
EKVX NSCLC = test system: EKVX NSCLC
SK-OV-3 ovarian = test system: SK-OV-3 ovarian
DU-145 prostate = test system: DU-145 prostate
HCT-116 colon = test system: HCT-116 colon
NCI-H522 lung = test system: NCI-H522 lung
HL-60(TB) leukemia = test system: HL-60(TB) leukemia
MDA-N = test system: MDA-N
SNB-75 CNS = test system: SNB-75 CNS
A498 renal = test system: A498 renal
TK-10 renal = test system: TK-10 renal
IGROV1 ovarian = test system: IGROV1 ovarian
UO-31 renal = test system: UO-31 renal
MOLT-4 leukemia = test system: MOLT-4 leukemia
SF-268 CNS = test system: SF-268 CNS
SN12C renal = test system: SN12C renal
U251 CNS = test system: U251 CNS
HOP-62 NSCLC = test system: HOP-62 NSCLC
CCRF-CEM leukemia = test system: CCRF-CEM leukemia
SNB-19 CNS = test system: SNB-19 CNS
RPMI-8226 leukemia = test system: RPMI-8226 leukemia
MDA-MB-435 = test system: MDA-MB-435
HT29 colon = test system: HT29 colon
HS 578T breast = test system: HS 578T breast
SK-MEL-28 melanoma = test system: SK-MEL-28 melanoma
OVCAR-5 ovarian = test system: OVCAR-5 ovarian
NCI/ADR-RES ovarian = test system: NCI/ADR-RES ovarian
UACC-62 melanoma = test system: UACC-62 melanoma
786-0 renal = test system: 786-0 renal
OVCAR-4 ovarian = test system: OVCAR-4 ovarian
SK-MEL-2 melanoma = test system: SK-MEL-2 melanoma
NCI-H226 lung = test system: NCI-H226 lung
ACHN renal = test system: ACHN renal
HOP-92 NSCLC = test system: HOP-92 NSCLC
MCF7 breast = test system: MCF7 breast
SR leukemia = test system: SR leukemia
T-47D breast = test system: T-47D breast
RXF 393 renal = test system: RXF 393 renal
NCI-H460 lung = test system: NCI-H460 lung
SF-539 CNS = test system: SF-539 CNS
UACC-257 melanoma = test system: UACC-257 melanoma
HCC-2998 colon = test system: HCC-2998 colon
CAKI-1 renal = test system: CAKI-1 renal

Measured: TGI

CN(C)CCNC(=O)c1cccc2c(NCC(=O)O)c3ccccc3nc12
53.5 µM: A549 NSCLC
72.1 µM: SNB-19 CNS
67.3 µM: SK-MEL-5 melanoma
57.9 µM: A498 renal
67.4 µM: HCT-116 colon
56.4 µM: EKVX NSCLC
48.2 µM: NCI/ADR-RES ovarian
29.8 µM: SF-295 CNS
27.8 µM: MCF7 breast
35.3 µM: NCI-H522 lung
35.9 µM: MALME-3M melanoma
17.7 µM: HT29 colon
37.4 µM: SK-MEL-2 melanoma
52.6 µM: SK-MEL-28 melanoma
50.7 µM: HS 578T breast
69.5 µM: MDA-MB-231 breast
33.4 µM: SF-268 CNS
64 µM: SNB-75 CNS
62.7 µM: 786-0 renal
45.1 µM: NCI-H23 lung
30.9 µM: OVCAR-4 ovarian | NCI-H226 lung
32.9 µM: MDA-MB-435
55.2 µM: PC-3 prostate
> 100 µM: OVCAR-3 ovarian | LOX IMVI melanoma | K-562 leukemia | HCT-15 colon | COLO 205 colon | SW-620 colon | SK-OV-3 ovarian | DU-145 prostate | HL-60(TB) leukemia | MDA-N | TK-10 renal | IGROV1 ovarian | UO-31 renal | MOLT-4 leukemia | SN12C renal | U251 CNS | CCRF-CEM leukemia | RPMI-8226 leukemia | OVCAR-5 ovarian | ACHN renal | HOP-92 NSCLC | SR leukemia
82.5 µM: HOP-62 NSCLC
38.5 µM: OVCAR-8 ovarian
60.7 µM: KM12 colon
52.2 µM: M14 melanoma
48.1 µM: UACC-62 melanoma

C=Cc1c(C)c(OC)cc2c1Oc1ccc(OC)c(C)c1CC2
> 100 µM: SK-MEL-5 melanoma | M14 melanoma | MALME-3M melanoma | NCI-H23 lung | K-562 leukemia | OVCAR-8 ovarian | SF-295 CNS | T-47D breast | HCT-15 colon | COLO 205 colon | MDA-MB-231 breast | SW-620 colon | KM12 colon | A549 NSCLC | PC-3 prostate | EKVX NSCLC | RXF 393 renal | SK-OV-3 ovarian | DU-145 prostate | HCT-116 colon | NCI-H522 lung | HL-60(TB) leukemia | NCI-H460 lung | SF-539 CNS | MDA-N | SNB-75 CNS | A498 renal | UACC-257 melanoma | TK-10 renal | HCC-2998 colon | IGROV1 ovarian | UO-31 renal | MOLT-4 leukemia | SF-268 CNS | SN12C renal | U251 CNS | HOP-62 NSCLC | CCRF-CEM leukemia | SNB-19 CNS | RPMI-8226 leukemia | MDA-MB-435 | HT29 colon | HS 578T breast | SK-MEL-28 melanoma | CAKI-1 renal | OVCAR-5 ovarian | NCI/ADR-RES ovarian | UACC-62 melanoma | 786-0 renal | OVCAR-4 ovarian | SK-MEL-2 melanoma | NCI-H226 lung | ACHN renal | HOP-92 NSCLC | MCF7 breast | SR leukemia
